Format: in vivo, Sprague-Dawley rats
Conditions: compared with enantiomer E4 and flocoumafen
Method: The configurational stereoisomers of flocoumafen are separated by high-pressure liquid chromatography using a LUX® Cellulose-4 chiral column (00F-4490-B0, Phenomenex, Le Pecq, France) as stationary phase and a mixture formed from acetonitrile (A) and water comprising 0.1% by volume of formic acid (B), with an AB volume ratio of 92/8, as mobile phase with a flow rate of the liquid mobile phase in the chromatography column of 0.25 mL/minute. 1 μL of extract to be analysed at a concentration of 1 μg/mL of acetonitrile is injected. Detection is performed by tandem mass spectrometry (MS/MS) in negative electrospray ionization (ESI) mode. The temperature of the nebulizer gas is 350° C. and its flow rate is 8 L/minute. The pressure of the nebulizer gas is brought to 2700 hPa. In particular, the MRM (“Multiple Reaction Monitoring”) transitions m/z 541.1→382.1 and m/z 541.1→161, corresponding to the flocoumafen signal, are analysed.
About 0.525 g (±0.025 g) of rat liver is weighed out accurately and placed in a 50 mL polypropylene tube. 10 mL of acetone are added and the suspension is homogenized using an Ultra-Turrax® homogenizer/disperser for a time of about 30 seconds. The homogenizer/disperser shaft is rinsed with hot water and then twice with 20 mL of acetone in a polypropylene tube. The homogenate is centrifuged for 5 minutes at a centrifugation speed of 3000 rpm (revolutions per minute). […]

O=c1oc2ccccc2c(O)c1C1CC(c2ccc(OCc3ccc(C(F)(F)F)cc3)cc2)Cc2ccccc21 (single isomer, unassigned) [Enantiomer E2]
Persistence in the liver of the male and female rats: lower than the persistence of enantiomer E4 of said diastereoisomer D1,4 and lower than the persistence of flocoumafen

Source: US20180362488A1, “STEREOISOMER OF FLOCOUMAFEN, COMPOSITION AND RODENTICIDE BAIT COMPRISING SAME, AND METHOD FOR CONTROLLING TARGET RODENT PESTS” (priority 2015, published 2018)
